From US20250197372A1 (priority 2020, published 2025)

Tests used:
[1] = biological target: T1, recombinant human GBA (beta-glucocerebrosidase) (Homo sapiens, UniProt P04062); assay: Beta-glucocerebrosidase (GBA, glucosylceramidase) assay (4-methylumbelliferyl-beta-D-pyranoside substrate, fluorescence); type: biochemical
T1 sequence (P04062 40-536): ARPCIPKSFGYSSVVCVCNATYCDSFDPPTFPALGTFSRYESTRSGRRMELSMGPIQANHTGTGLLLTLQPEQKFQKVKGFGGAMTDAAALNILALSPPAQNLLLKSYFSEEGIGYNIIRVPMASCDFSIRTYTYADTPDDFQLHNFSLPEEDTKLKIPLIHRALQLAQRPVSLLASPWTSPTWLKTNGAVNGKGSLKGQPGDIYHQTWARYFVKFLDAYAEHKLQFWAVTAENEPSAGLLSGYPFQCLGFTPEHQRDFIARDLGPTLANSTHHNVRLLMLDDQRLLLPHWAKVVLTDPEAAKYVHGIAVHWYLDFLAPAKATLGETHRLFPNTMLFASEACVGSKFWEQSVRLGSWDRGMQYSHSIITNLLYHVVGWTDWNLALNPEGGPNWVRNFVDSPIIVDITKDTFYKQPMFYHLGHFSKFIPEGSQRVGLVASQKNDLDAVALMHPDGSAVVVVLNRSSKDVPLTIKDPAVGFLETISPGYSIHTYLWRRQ
Procedure: Beta-glucocerebrosidase (GBA, also referred to glucosylceramidase): To analyze inhibitory effects of a test compound, commercially available recombinant human GBA was incubated with multiple dilutions of test compound for 60 minutes at 37° C. 4-methylumbelliferyl-beta-D-pyranoside was then introduced to the mixture as substrate. Following incubation for 60 minutes at 37° C., 1,4-methyllumbelliferone was generated, and the reaction was stopped with the stop solution (0.5 M glycine; 0.3 M NaOH, pH 10). 1,4-methyllumbelliferone was detected by fluorescence (excitation at 365 nm, emission at 440 nm). Relative fluorescence compared to untreated enzymatic activity and test compound concentration is then plotted as a function of percent inhibition. The IC50 was determined using a 4-PL curve fit as the measure of relative inhibitory activity of each test compound (see Table 3).

[2] = biological target: rat sucrase (partially purified alpha-glucosidase from intestinal rat powder) (Rattus norvegicus, UniProt P23739); assay: Intestinal alpha-glucosidase assay, sucrose substrate (Glucose GO Kit); type: biochemical
Procedure: Intestinal alpha-glucosidases (rat maltase and sucrase): Intestinal alpha-glucosidases act upon 1,4-alpha-glucoside bonds, breaking down disaccharides to glucose. To perform this assay, partially purified alpha-glucosidase from intestinal rat powder was incubated for 60 minutes at 37° C. with multiple dilutions of test compounds. Maltose or Sucrose respectively was then introduced as substrate to the mixture and incubated for 30 minutes at 37° C. The reaction was stopped by a 5-minute incubation at 90° C. and the resultant glucose production is detected using Sigma's Glucose GO Kit. Percent inhibition was then plotted as a function of concentration for each test compound. The IC50 was determined using a 4-PL curve fit and serves as the measure of relative inhibition of each test compound (see Table 3).

Sequence of rat sucrase (partially purified alpha-glucosidase from intestinal rat powder) (P23739 whole entry): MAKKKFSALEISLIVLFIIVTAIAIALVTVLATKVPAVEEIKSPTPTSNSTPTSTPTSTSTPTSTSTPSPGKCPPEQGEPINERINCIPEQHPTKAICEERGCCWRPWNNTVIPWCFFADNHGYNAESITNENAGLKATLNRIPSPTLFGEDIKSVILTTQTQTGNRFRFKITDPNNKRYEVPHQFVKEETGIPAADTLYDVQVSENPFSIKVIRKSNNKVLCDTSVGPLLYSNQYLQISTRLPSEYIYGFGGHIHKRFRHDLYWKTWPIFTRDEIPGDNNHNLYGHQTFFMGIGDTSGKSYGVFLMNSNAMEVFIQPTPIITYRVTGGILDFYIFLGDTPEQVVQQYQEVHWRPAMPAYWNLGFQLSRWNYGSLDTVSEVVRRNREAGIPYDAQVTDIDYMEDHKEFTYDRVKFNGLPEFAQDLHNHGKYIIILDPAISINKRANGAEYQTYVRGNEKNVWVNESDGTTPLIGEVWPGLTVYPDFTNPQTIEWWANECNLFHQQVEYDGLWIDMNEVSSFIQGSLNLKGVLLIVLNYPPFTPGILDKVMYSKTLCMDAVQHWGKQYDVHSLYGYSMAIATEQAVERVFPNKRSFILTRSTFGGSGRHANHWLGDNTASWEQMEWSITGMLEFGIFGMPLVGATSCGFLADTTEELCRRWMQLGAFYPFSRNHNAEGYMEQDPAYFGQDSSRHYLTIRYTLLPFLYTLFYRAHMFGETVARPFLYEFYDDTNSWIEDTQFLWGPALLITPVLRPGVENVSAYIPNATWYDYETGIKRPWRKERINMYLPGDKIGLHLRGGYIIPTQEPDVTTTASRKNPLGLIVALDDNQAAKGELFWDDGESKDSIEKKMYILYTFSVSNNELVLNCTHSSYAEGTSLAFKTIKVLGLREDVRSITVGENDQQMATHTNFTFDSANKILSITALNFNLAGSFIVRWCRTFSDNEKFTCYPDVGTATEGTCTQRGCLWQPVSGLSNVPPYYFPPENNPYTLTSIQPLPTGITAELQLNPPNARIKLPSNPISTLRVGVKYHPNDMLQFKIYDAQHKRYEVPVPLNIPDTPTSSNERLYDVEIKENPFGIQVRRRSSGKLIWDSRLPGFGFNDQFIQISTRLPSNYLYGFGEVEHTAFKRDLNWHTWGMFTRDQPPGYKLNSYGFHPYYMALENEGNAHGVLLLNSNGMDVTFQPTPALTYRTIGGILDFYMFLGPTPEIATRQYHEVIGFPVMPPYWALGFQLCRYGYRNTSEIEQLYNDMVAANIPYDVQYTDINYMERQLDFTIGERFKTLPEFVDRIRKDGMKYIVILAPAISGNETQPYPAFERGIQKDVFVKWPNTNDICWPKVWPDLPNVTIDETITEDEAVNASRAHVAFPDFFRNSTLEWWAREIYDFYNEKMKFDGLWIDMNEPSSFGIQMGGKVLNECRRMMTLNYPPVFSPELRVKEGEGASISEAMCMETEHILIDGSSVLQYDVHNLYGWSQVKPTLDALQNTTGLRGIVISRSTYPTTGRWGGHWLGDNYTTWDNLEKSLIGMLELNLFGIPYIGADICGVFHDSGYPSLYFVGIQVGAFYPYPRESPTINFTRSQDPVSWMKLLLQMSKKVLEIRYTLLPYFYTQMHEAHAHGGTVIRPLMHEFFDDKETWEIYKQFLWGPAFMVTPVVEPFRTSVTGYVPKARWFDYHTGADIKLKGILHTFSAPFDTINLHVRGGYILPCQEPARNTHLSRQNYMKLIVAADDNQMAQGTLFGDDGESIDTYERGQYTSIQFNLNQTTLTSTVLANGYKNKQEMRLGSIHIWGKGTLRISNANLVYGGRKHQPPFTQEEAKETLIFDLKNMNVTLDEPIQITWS

Q: O=[N+]([O-])c1cc(N2C3CCC2COC3)ccc1NCc1ccc(CN2CC(O)C(O)C(O)C2CO)cc1 (stereo in doubt) [Compound 1018, (2S,3S,4S,5R)-2-(hydroxymethyl)-1-({4-[({2-nitro-4-[(1R,5S)-3-oxa-8-azabicyclo[3.2.1]octan-8-yl]phenyl}amino)methyl]phenyl}methyl) piperidine-3,4,5-triol] was tested. Which IC50 [1] did it give?
A: Its IC50 is over 100000 nM.

Q: What about the IC50 [2] of the same compound?
A: Its IC50 is under 1 nM.

Q: Which IC50 [1] does the source give for [N-]=[N+]=Nc1ccc(NCCc2ccc(CCN3C[C@@H](O)[C@H](O)[C@@H](O)[C@@H]3CO)c3ccccc23)c([N+](=O)[O-])c1 (stereo in doubt) [Compound 1178, (2S,3S,4S,5R)-1-[2-(4-{2-[(4-azido-2-nitrophenyl)amino]ethyl}naphthalen-1-yl)ethyl]-2-(hydroxymethyl)piperidine-3,4,5-triol] here?
A: Its IC50 is 5900 nM.

Q: What about the IC50 [2] of the same compound?
A: Its IC50 is 71500 nM.

Q: Which IC50 [1] does the source give for OC[C@@H]1[C@@H](O)[C@H](O)[C@@H](O)CN1CCCCCCNc1cc(-c2cccnn2)cc(C2CC2)c1 [Compound 1008, (2R,3R,4R,5S)-1-(6-{[3-cyclopropyl-5-(pyridazin-3-yl)phenyl]amino}hexyl)-2-(hydroxymethyl)piperidine-3,4,5-triol] here?
A: Its IC50 is 2330 nM.

Q: And the IC50 [2]?
A: Its IC50 is 78 nM.

Q: What does the source list for OC[C@@H]1[C@@H](O)[C@H](O)[C@@H](O)CN1CCCCCCNc1cc(-c2ncccn2)cc(C2CC2)c1 [Compound 1009, (2R,3R,4R,5S)-1-(6-{[3-cyclopropyl-5-(pyrimidin-2-yl)phenyl]amino}hexyl)-2-(hydroxymethyl)piperidine-3,4,5-triol]?
A: IC50 [1]: 2590 nM; IC50 [2]: 71 nM

Q: Which IC50 [1] does the source give for OC[C@@H]1[C@@H](O)[C@H](O)[C@@H](O)CN1Cc1ccc(CNc2cc(C3CC3)cc(N3CCOCC3)c2)cc1 [Compound 1010, (2R,3R,4R,5S)-1-{[4-({[3-cyclopropyl-5-(morpholin-4-yl)phenyl]amino}methyl)phenyl]methyl}-2-(hydroxymethyl)piperidine-3,4,5-triol] here?
A: The IC50 was over 100000 nM.

Q: What about the IC50 [2] of the same compound?
A: The IC50 was 96 nM.

Q: Which results are given for OC[C@@H]1[C@@H](O)[C@H](O)[C@@H](O)CN1Cc1ccc(CNc2cc(-c3cccnn3)cc(C3CC3)c2)cc1 [Compound 1012, (2R,3R,4R,5S)-1-{[4-({[3-cyclopropyl-5-(pyridazin-3-yl)phenyl]amino}methyl)phenyl]methyl}-2-(hydroxymethyl)piperidine-3,4,5-triol]?
A: IC50 [1]: 32300 nM; IC50 [2]: 33 nM

Q: Which results are given for OC[C@@H]1[C@@H](O)[C@H](O)[C@@H](O)CN1Cc1ccc(CNc2cc(-c3ncccn3)cc(C3CC3)c2)cc1 [Compound 1013, (2R,3R,4R,5S)-1-{[4-({[3-cyclopropyl-5-(pyrimidin-2-yl)phenyl]amino}methyl)phenyl]methyl}-2-(hydroxymethyl)piperidine-3,4,5-triol]?
A: IC50 [1]: > 100000 nM; IC50 [2]: 26 nM

Q: Which results are given for C[C@@H]1CN(c2ccc(NCc3ccc(CN4C[C@H](O)[C@@H](O)[C@H](O)[C@H]4CO)cc3)c([N+](=O)[O-])c2)C[C@H](C)O1 [Compound 1014]?
A: IC50 [1]: > 100000 nM; IC50 [2]: 15 nM

Q: Which IC50 [1] does the source give for CS(=O)(=O)c1cc(Br)cc(NCc2cccc(CN3C[C@H](O)[C@@H](O)[C@H](O)[C@H]3CO)c2)c1 [Compound 1022, (2R,3R,4R,5S)-1-[(3-{[(3-bromo-5-methanesulfonylphenyl)amino]methyl}phenyl)methyl]-2-(hydroxymethyl)piperidine-3,4,5-triol] here?
A: Its IC50 is 90400 nM.

Q: And the IC50 [2]?
A: The IC50 was 26 nM.

Q: With Cc1cc(NCc2cccc(CN3C[C@H](O)[C@@H](O)[C@H](O)[C@H]3CO)c2)cc(-c2ncccn2)c1 [Compound 1035, (2R,3R,4R,5S)-2-(hydroxymethyl)-1-{[3-({[3-methyl-5-(pyrimidin-2-yl)phenyl]amino}methyl)phenyl]methyl}piperidine-3,4,5-triol] as the compound, how does the IC50 [1] read?
A: The IC50 was over 100000 nM.

Q: What about the IC50 [2] of the same compound?
A: The IC50 was 51 nM.

Q: Which IC50 [1] does the source give for CS(=O)(=O)c1cc(NCc2cccc(CN3C[C@H](O)[C@@H](O)[C@H](O)[C@H]3CO)c2)cc(-c2cccnn2)c1 [Compound 1040, (2R,3R,4R,5S)-2-(hydroxymethyl)-1-{[3-({[3-methanesulfonyl-5-(pyridazin-3-yl)phenyl]amino}methyl)phenyl]methyl}piperidine-3,4,5-triol] here?
A: Its IC50 is over 100000 nM.

Q: What about the IC50 [2] of the same compound?
A: The IC50 was 126 nM.

Q: Which IC50 [1] does the source give for CS(=O)(=O)c1cc(NCc2cccc(CN3C[C@H](O)[C@@H](O)[C@H](O)[C@H]3CO)c2)cc(-c2ncccn2)c1 [Compound 1041, (2R,3R,4R,5S)-2-(hydroxymethyl)-1-{[3-({[3-methanesulfonyl-5-(pyrimidin-2-yl)phenyl]amino}methyl)phenyl]methyl}piperidine-3,4,5-triol] here?
A: Its IC50 is over 100000 nM.

Q: And the IC50 [2]?
A: The IC50 was 187 nM.

Q: Which results are given for N#Cc1cc(NCc2cccc(CN3C[C@H](O)[C@@H](O)[C@H](O)[C@H]3CO)c2)cc(C2=COCCO2)c1 [Compound 1044, 3-(5,6-dihydro-1,4-dioxin-2-yl)-5-{[(3-{[(2R,3R,4R,5S)-3,4,5-trihydroxy-2-(hydroxymethyl)piperidin-1-yl]methyl}phenyl)methyl]amino}benzonitrile]?
A: IC50 [1]: 53200 nM; IC50 [2]: < 1 nM

Q: Cc1cc(NCc2ccc(CN3C[C@H](O)[C@@H](O)[C@H](O)[C@H]3CO)cc2)cc(-c2cccnn2)c1 [Compound 1052, (2R,3R,4R,5S)-2-(hydroxymethyl)-1-{[4-({[3-methyl-5-(pyridazin-3-yl)phenyl]amino}methyl)phenyl]methyl}piperidine-3,4,5-trio] was tested. Which IC50 [1] did it give?
A: The IC50 was 84500 nM.

Q: And the IC50 [2]?
A: Its IC50 is 60 nM.

Q: What does the source list for CS(=O)(=O)c1cc(NCc2ccc(CN3C[C@H](O)[C@@H](O)[C@H](O)[C@H]3CO)cc2)cc(-c2cccnn2)c1 [Compound 1058, (2R,3R,4R,5S)-2-(hydroxymethyl)-1-{[4-({[3-methanesulfonyl-5-(pyridazin-3-yl)phenyl]amino}methyl)phenyl]methyl}piperidine-3,4,5-triol]?
A: IC50 [1]: > 100000 nM; IC50 [2]: 46 nM

Q: For O=[N+]([O-])c1cc(N2CCOCC2)ccc1NCc1cccc(CN2C[C@H](O)[C@@H](O)[C@H](O)[C@H]2CO)c1 [Compound 1067, (2R,3R,4R,5S)-2-(hydroxymethyl)-1-{[3-({[4-(morpholin-4-yl)-2-nitrophenyl]amino}methyl)phenyl]methyl}piperidine-3,4,5-triol], which IC50 [1] is on record?
A: Its IC50 is 3720 nM.

Q: And the IC50 [2]?
A: The IC50 was 80 nM.

Q: What does the source list for OC[C@@H]1[C@@H](O)[C@H](O)[C@@H](O)CN1Cc1ccc(CNc2ccc(N3CCOCC3)cc2)cc1 [Compound 1068]?
A: IC50 [1]: > 100000 nM; IC50 [2]: 141 nM

Q: OC[C@@H]1[C@@H](O)[C@H](O)[C@@H](O)CN1CCc1ccc(CCNc2cc(Cl)cc(-c3ncon3)c2)cc1 [Compound 1113, (2R,3R,4R,5S)-1-{2-[4-(2-{[3-chloro-5-(1,2,4-oxadiazol-3-yl)phenyl]amino}ethyl)phenyl]ethyl}-2-(hydroxymethyl)piperidine-3,4,5-triol] was tested. Which IC50 [1] did it give?
A: The IC50 was 6290 nM.

Q: What about the IC50 [2] of the same compound?
A: Its IC50 is 74 nM.

Q: For CCCc1nc(-c2cc(Cl)cc(NCCc3ccc(CCN4C[C@H](O)[C@@H](O)[C@H](O)[C@H]4CO)cc3)c2)no1 [Compound 1123, (2R,3R,4R,5S)-1-{2-[4-(2-{[3-chloro-5-(5-propyl-1,2,4-oxadiazol-3-yl)phenyl]amino}ethyl)phenyl]ethyl}-2-(hydroxymethyl)piperidine-3,4,5-triol], which IC50 [1] is on record?
A: Its IC50 is 627 nM.

Q: And the IC50 [2]?
A: The IC50 was 2810 nM.

Q: COC(OC)c1cc(NCCCCCCN2C[C@H](O)[C@@H](O)[C@H](O)[C@H]2CO)cc(-c2ncccn2)c1 [Compound 1124, (2R,3R,4R,5S)-1-(6-{[3-(dimethoxymethyl)-5-(pyrimidin-2-yl)phenyl]amino}hexyl)-2-(hydroxymethyl)piperidine-3,4,5-triol] was tested. Which IC50 [1] did it give?
A: The IC50 was 3000 nM.

Q: What about the IC50 [2] of the same compound?
A: Its IC50 is 147 nM.

Q: Which IC50 [1] does the source give for CC(=O)Nc1cc(NCCCCCCN2C[C@H](O)[C@@H](O)[C@H](O)[C@H]2CO)cc(-c2ncccn2)c1 [Compound 1125, N-[3-(pyrimidin-2-yl)-5-({6-[(2R,3R,4R,5S)-3,4,5-trihydroxy-2-(hydroxymethyl)piperidin-1-yl]hexyl}amino)phenyl]acetamide] here?
A: Its IC50 is 9690 nM.

Q: What about the IC50 [2] of the same compound?
A: Its IC50 is 92 nM.

Q: Which results are given for CN(C)C(=O)c1cc(NCCCCCCN2C[C@H](O)[C@@H](O)[C@H](O)[C@H]2CO)cc(-c2ncccn2)c1 [Compound 1126, N,N-dimethyl-3-(pyrimidin-2-yl)-5-({6-[(2R,3R,4R,5S)-3,4,5-trihydroxy-2-(hydroxymethyl)piperidin-1-yl]hexyl}amino)benzamide]?
A: IC50 [1]: 7040 nM; IC50 [2]: 13500 nM
